According to patent publication US20240279218A1 (Hoffmann-La Roche Inc., priority 2016, published 2024):
pKi: −log10 of the molar value.

Columns and labels:
[1] = target: T1, h-GABA-A α5β3γ2 (Homo sapiens (Human), UniProt P18507+P31644); assay: [3H]flumazenil competition binding assay, membranes of HEK293 cells expressing human GABAA receptors; conditions: displacement of [3H]flumazenil 0.5 nM, HEK293 cells expressing human receptors, mean of two determinations; read-out: Ki h-GABA-A α5β3γ2
Outline: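 Membranes were prepared from HEK293 cells with transient human α5β3γ2 expression and assayed in Krebs-tris, pH 7.5. Bound radioactivity measured on filters by liquid scintillation.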

[2] = target: T1, h-GABA-A α5β3γ2; assay: Two-electrode voltage clamp electrophysiology in Xenopus oocytes expressing GABAA receptors, modulation of GABA EC20 current; format: cell-based; conditions: Xenopus oocytes; for Efficacy (GABA) %: % modulation of GABA EC20 = 100*(Fold increase−1); for Fold increase h-GABA-A α5β3γ2 oocyte: GABA EC20, test compound at approx. 30 fold its Ki
Outline: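 Values are % modulation of an EC20 GABA response, derived point by point from the ratio of compound-exposed versus control current traces (extremum taken, 100×(fold−1)). Recordings used oocytes injected with human α5, β3, γ2 mRNA, clamped at −80 mV at room temperature, at least 3 oocytes each.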

pKi [1] | Efficacy (GABA) % [2] | Fold increase h-GABA-A α5β3γ2 oocyte [2] | Structure (SMILES)
8.34 | 89% | 1.89 | Cc1ccc(-c2noc(C)c2COc2ccc(C(=O)NC3(C)CCS(=O)(=O)CC3)nn2)cn1 [Example 111, N-(4-methyl-1,1-dioxidotetrahydro-2H-thiopyran-4-yl)-6-((5-methyl-3-(6-methylpyridin-3-yl)isoxazol-4-yl)methoxy)pyridazine-3-carboxamide]
8.19 | 43% | 1.43 | Cc1ccc(-c2noc(C)c2COc2ccc(C(=O)N3CC4(C3)CS(=O)(=O)C4)nn2)cn1 [Example 112, (2,2-dioxido-2-thia-6-azaspiro[3.3]heptan-6-yl)(6-((5-methyl-3-(6-methylpyridin-3-yl)isoxazol-4-yl)methoxy)pyridazin-3-yl)methanone]
7.47 | 28% | 1.28 | Cc1ccc(-c2noc(C)c2COc2cnc(C(=O)N3CC4(C3)CS(=O)(=O)C4)cn2)cn1 [Example 113, (2,2-dioxido-2-thia-6-azaspiro[3.3]heptan-6-yl)(5-((5-methyl-3-(6-methylpyridin-3-yl)isoxazol-4-yl)methoxy)pyrazin-2-yl)methanone]
7.55 | 74% | 1.74 | Cc1ccc(-c2noc(C)c2COc2ccc(C(=O)NC3(C)CCCC3)nn2)cn1 [Example 114, 6-((5-methyl-3-(6-methylpyridin-3-yl)isoxazol-4-yl)methoxy)-N-(1-methylcyclopentyl)pyridazine-3-carboxamide]
7.29 | 139% | 2.39 | Cc1ccc(-c2noc(C)c2COc2cnc(C(=O)NCCCC(F)(F)F)cn2)cn1 [Example 115, 5-((5-methyl-3-(6-methylpyridin-3-yl)isoxazol-4-yl)methoxy)-N-(4,4,4-trifluorobutyl)pyrazine-2-carboxamide]
8.31 | 59% | 1.59 | Cc1ccc(-c2noc(C)c2COc2ccc(C(=O)NC3CN(C(C)C)C3)nn2)cn1 [Example 116, N-(1-isopropylazetidin-3-yl)-6-((5-methyl-3-(6-methylpyridin-3-yl)isoxazol-4-yl)methoxy)pyridazine-3-carboxamide]
7.81 | 99% | 1.99 | Cc1ccc(-c2noc(C)c2COc2cc3c(cn2)C(=O)N(C2CC4(COC4)C2)C3)cn1 [Example 117, 6-((5-methyl-3-(6-methylpyridin-3-yl)isoxazol-4-yl)methoxy)-2-(2-oxaspiro[3.3]heptan-6-yl)-1H-pyrrolo[3,4-c]pyridin-3(2H)-one]
7.91 | 88% | 1.88 | Cc1ccc(-c2noc(C)c2COc2ccc(C(=O)NC3(C)CCC3)nn2)cn1 [Example 118, 6-((5-methyl-3-(6-methylpyridin-3-yl)isoxazol-4-yl)methoxy)-N-(1-methylcyclobutyl)pyridazine-3-carboxamide]
7.51 | 102% | 2.02 | CCc1onc(-c2ccc(C)nc2)c1COc1ccc(C(=O)NC2CCOCC2)cn1 [Example 119, 6-((5-ethyl-3-(6-methylpyridin-3-yl)isoxazol-4-yl)methoxy)-N-tetrahydropyran-4-yl-pyridine-3-carboxamide]
7.28 | 160% | 2.6 | CCc1onc(-c2ccc(C)nc2)c1COc1ccc(C(=O)NC2CCS(=O)(=O)CC2)cn1 [Example 120, N-(1,1-dioxidotetrahydro-2H-thiopyran-4-yl)-6-((5-ethyl-3-(6-methylpyridin-3-yl)isoxazol-4-yl)methoxy)pyridine-3-carboxamide]
7.39 | 109% | 2.09 | CCc1onc(-c2ccc(C)nc2)c1COc1ccc(C(=O)NC2CCOCC2)nn1 [Example 121, 6-((5-ethyl-3-(6-methylpyridin-3-yl)isoxazol-4-yl)methoxy)-N-(tetrahydropyran-4-yl)pyridazine-3-carboxamide]
7.58 | 126% | 2.26 | CCc1onc(-c2ccc(C)nc2)c1COc1ccc(C(=O)NC2(C)COC2)nn1 [Example 122, 6-((5-ethyl-3-(6-methylpyridin-3-yl)isoxazol-4-yl)methoxy)-N-(3-methyloxetan-3-yl)pyridazine-3-carboxamide]
7.66 | 106% | 2.06 | CCc1onc(-c2ccc(C)nc2)c1COc1ccc(C(=O)NC2CC2)nn1 [Example 123, N-cyclopropyl-6-((5-ethyl-3-(6-methylpyridin-3-yl)isoxazol-4-yl)methoxy)pyridazine-3-carboxamide]
7.44 | 47% | 1.47 | CCC[C@H](CO)NC(=O)c1ccc(OCc2c(-c3ccc(C)nc3)noc2C)nc1 [Example 124, (R)—N-(1-hydroxypentan-2-yl)-6-((5-methyl-3-(6-methylpyridin-3-yl)isoxazol-4-yl)methoxy)pyridine-3-carboxamide]
7.23 | 142% | 2.42 | CCC[C@@H](CO)NC(=O)c1ccc(OCc2c(-c3ccc(C)nc3)noc2C(F)F)nc1 [Example 125, 6-((5-(difluoromethyl)-3-(6-methyl-3-pyridyl)isoxazol-4-yl)methoxy)-N-((1S)-1-(hydroxymethyl)butyl)pyridine-3-carboxamide]
7.30 | 49% | 1.49 | Cc1ccc(-c2noc(C(F)F)c2COc2ccc(C(=O)NC3CCOCC3)cn2)cn1 [Example 126, 6-((5-(difluoromethyl)-3-(6-methyl-3-pyridyl)isoxazol-4-yl)methoxy)-N-tetrahydropyran-4-yl-pyridine-3-carboxamide]
7.64 | 50% | 1.5 | Cc1ccc(-c2noc(C)c2COc2ccc(C(=O)N[C@H]3CCOC[C@@H]3O)cn2)cn1 [Example 127, N-((3R,4S)-3-hydroxytetrahydropyran-4-yl)-6-((5-methyl-3-(6-methyl-3-pyridyl)isoxazol-4-yl)methoxy)pyridine-3-carboxamide]
8.21 | 107% | 2.07 | Cc1onc(-c2ccc(C3CC3)nc2)c1COc1ccc(C(=O)NC2CCOCC2)cn1 [Example 128, 6-((3-(6-cyclopropyl-3-pyridyl)-5-methyl-isoxazol-4-yl)methoxy)-N-tetrahydropyran-4-yl-pyridine-3-carboxamide]
7.59 | 156% | 2.56 | CCC[C@@H](CO)NC(=O)c1ccc(OCc2c(-c3ccc(C4CC4)nc3)noc2C)nc1 [Example 129, 6-((3-(6-cyclopropyl-3-pyridyl)-5-methyl-isoxazol-4-yl)methoxy)-N-((1S)-1-(hydroxymethyl)butyl)pyridine-3-carboxamide]
7.52 | 128% | 2.28 | Cc1onc(-c2ccc(C3CC3)nc2)c1COc1ccc(C(=O)NC2CCS(=O)(=O)CC2)cn1 [Example 130, 6-((3-(6-cyclopropyl-3-pyridyl)-5-methyl-isoxazol-4-yl)methoxy)-N-(1,1-dioxothian-4-yl)pyridine-3-carboxamide]
7.59 | 51% | 1.51 | Cc1ccc(-c2noc(C)c2COc2ccc(C(=O)N[C@@H]3CCCC(F)(F)[C@H]3O)cn2)cn1 [Example 131, N-((1R,2S)-3,3-difluoro-2-hydroxycyclohexyl)-6-((5-methyl-3-(6-methylpyridin-3-yl)isoxazol-4-yl)methoxy)pyridine-3-carboxamide]
7.42 | 64% | 1.64 | Cc1ccc(-c2noc(C)c2COc2ccc(C(=O)N[C@@H]3CCCC[C@H]3O)cn2)cn1 [Example 132, N-((1R,2R)-2-hydroxycyclohexyl)-6-((5-methyl-3-(6-methylpyridin-3-yl)isoxazol-4-yl)methoxy)pyridine-3-carboxamide]
7.37 | 95% | 1.95 | Cc1ccc(-c2noc(C)c2COc2ccc(C(=O)N[C@H]3CCCC(F)(F)[C@@H]3O)cn2)cn1 [Example 133, N-((1S,2R)-3,3-difluoro-2-hydroxycyclohexyl)-6-((5-methyl-3-(6-methylpyridin-3-yl)isoxazol-4-yl)methoxy)pyridine-3-carboxamide]
7.68 | 66% | 1.66 | Cc1ccc(-c2noc(C)c2COc2ccc(C(=O)N[C@@H]3CCOC[C@H]3O)cn2)cn1 [Example 134, N-((3S,4R)-3-hydroxytetrahydro-2H-pyran-4-yl)-6-((5-methyl-3-(6-methylpyridin-3-yl)isoxazol-4-yl)methoxy)pyridine-3-carboxamide]
7.52 | 92% | 1.92 | Cc1ccc(-c2noc(C)c2COc2ccc(C(=O)N[C@H]3CCCC[C@@H]3O)cn2)cn1 [Example 135, N-((1S,2S)-2-hydroxycyclohexyl)-6-((5-methyl-3-(6-methylpyridin-3-yl)isoxazol-4-yl)methoxy)pyridine-3-carboxamide]
